Tests used:
PBMCs = assay: PHA-induced proliferation of PBMC in the presence of albumin peptides and/or dHSA; assay type: cell-based, human; details: PBMCs from two healthy controls; two PHA concentrations
Text: Venous blood was drawn from healthy volunteers or from cancer patients in glass vacuum tubes with acid dextrose citrate solution A as anti-coagulant (Vacutainer, Becton Dickinson, Franklin Lakes, N.J.). Erythrocytes were removed by sedimentation on 2% dextran T500 solution (Amersham Pharmacia Biotech AB, Uppsala, Sweden) in 0.9% NaCl (this step was omitted for cultures with PHA-stimulation-see below). […] For cell cultures with PHA-stimulation, PBMC were washed in Hank's Balanced Salt Solution (HBSS) with 10% autologous plasma instead of RPMI/2% HSA. […] The cell suspension was stained with Turk's solution and the number of lymphocytes and monocytes in the PBMC preparation were counted in a hemocytometer. PBMCs were suspended in RPMI/2% HSA and the cell concentration adjusted to 5×10^5 lymphocytes/ml.
100 μl of the cell suspension were seeded into round-bottomed microtiter plates (Corning, N.Y., USA) followed by 100 μl of culture medium consisting of RPMI 1640 (Flow Laboratories, Irvine, Scotland) supplemented with 200 IU/ml Penicillin, 200 μg/ml Streptomycin (Flow laboratories) and 20% heat inactivated autologous serum. Phytohemagglutinin (PHA-P, Sigma Chemical Co, St. Louis, Mo.) at a final concentration of 5 or 10 μg/ml was then added.
All culture conditions were set up in triplicate wells. […] Mean values of disintegrations per minute (dpm) of triplicates were used for the calculations.

[1] = test system: cell surface receptors of immune cells (ACS); assay: Adsorption of enzyme fragmented dHSA on affinity column with biotinylated cell surface proteins (ACS), MALDI-TOF ms; assay type: binding, human
Experimental: Based on the observation that immunoregulatory peptide sequences are present in serum albumin, there is the possibility that other sequences than the epitope of mAb A have immunoregulatory function. Therefore an artificial cell surface (ACS) was prepared as described in materials and methods. […]
To remove unfragmented albumin and enzyme, the sample was ultra filtered through an Amicon Ultra 4 (mw cut-off of 5000) or a Centriplus (mw cut-off 10000) centrifugal filter (Millipore AB, Solna, Sweden). The filtrate, containing fragmented dHSA without enzymes, was collected and diluted with PBS with Ca and Mg (GIBCO).
Buffy coats generated from 450 ml blood each was collected from 4 healthy donors. Erythrocytes were removed by sedimentation on 2% dextran T500 solution (Amersham Pharmacia Biotech AB, Uppsala Sweden) in 0.9% NaCl. Mononuclear cells (PBMC) were then isolated by Ficoll-Paque Plus (GE Healthcare Bioscience AB Sweden) density gradient centrifugation. The PBMC were then suspended in phosphate buffered saline (PBS) containing Ca and Mg (GIBCO) at a concentration of 10×10^6/ml. EZ Link Sulfo-NHS-biotin (Pierce USA) was added at a final concentration of 0.2 mg/ml and the mixture incubated on a shaker at room temperature for 10 min. Excess biotin was then removed by washing the PBMC in PBS. Biotinylated PBMC were then lysed by adding 1.0 ml ice-cold lysing buffer (50 mM Tris-HCL, pH 7.5, with 0.15 M NaCl, 5 mM MgCl2 containing 100 mM Octyl glucoside and 1 mM Phenylmethylsulfonyl fluoride) per 2×10^7 pelleted cells with gentle shaking, then incubated for 30 min. on ice. Debris was removed by centrifugation at 5000×g at 4° C. for 10 min and the supernatants was collected and pooled from all four donors. The lysate was then stored at −70° C. in polypropylene plastic tubes.
This amount of lysate corresponds to 36×10^7 mononuclear cells. It was added to a 1 ml Hitrap Streptavidin HP affinity column (Amersham Biosciences). To block possible remaining free biotin, 5 ml of 0.1 M glycine (Sigma) was added to the column. Unsaturated streptavidin on the column was then reacted with 150 ug biotin (Sigma) in binding buffer. The column was carefully washed with PBS and stored in PBS with 0.1% NaN3 at 4° C. until use.
27 ml biotinylated cell lysate in binding buffer (corresponding to 54×10^7 mononuclear cells) was added to 1.5 ml washed Streptavidin Sepharose HP (Amersham Biosciences). To block possible remaining free biotin, 25 ml of 0.1 M glycine (Sigma) was added to the Streptavidin Sepharose. Unsaturated streptavidin was then reacted with 225 μg biotin (Sigma) in binding buffer. The Streptavidin Sepharose was carefully washed in PBS. One ml of the biotinylated cell lysate coupled Streptavidin Sepharose was then packed in an empty column (Tricorn Empty High Performance Column, Amersham Bioscience) and washed with phosphate buffered saline (PBS) containing Ca and Mg (GIBCO).
The flow-through was collected with consideration taken to void volume and dilution of adsorbed sample by collecting in small portions of 0.2 ml. Thirty ul of each sample, including a control sample that has not been adsorbed, were dried in a Speed-Vac centrifuge.
Dried samples were reconstituted in 10 ul of 0.1% TFA. Zip Tip pipette tips (Millipore, USA) containing C18 reversed-phase media were used for desalting reconstituted samples. […] For the analysis of samples in the mass range 1500-9000 Da, one μl of each Zip Tip eluted sample was mixed with 1 μl of sinapinic acid ([…]). […] Mass identity search of resulting spectra was performed in the SwissProt or NCBI databases using MS-Fit.

PBMC = assay: IL-2 induced proliferation of PBMC in the presence of affinity purified rabbit anti-3028; assay type: cell-based, human; details: small amount of peptide 3028 having no inhibitory activity per se
Experimental: Serum containing culture medium (100 ul/well) was pre-incubated with 20 ug/ml of rabbit antibodies for 30 min at room temperature before the addition of 100 ul PBMC suspension to the culture wells.

Q: VFDEFKPLVEEPQNLIK [peptide 3028] was tested. Which “effect on dHSA modulated PHA stimulated proliferation” value (PBMCs) did it give?
A: inhibited the stimulatory activity of dHSA

Q: What about the Per cent adsorbed ([1]; Table 5 A, peptides generated by trypsin degradation of dHSA) of the same sequence?
A: 0.60 Per cent

Q: What about the “Per cent adsorbed” value ([1]; Table 5 B, trypsin peptides selected for synthesis) of the same sequence?
A: 0.60 Per cent

Q: What about the “effect on the stimulatory effect of anti-3028 antibodies” value (PBMC) of the same sequence?
A: neutralized

Reference: patent US9796777B2, “Methods of treating malignant tumors” (Canimguide Therapeutics AB, priority 2007, dated 2017)
